Test results as given in patent US8536115B2, “Compositions and methods for modulating AMPA receptor-mediated excitotoxicity” (Centre for Addiction and Mental Health, priority 2006, dated 2013).
No end group written: not given here.

Columns and labels:
GAPDH:AMPAR complex [1] = biological target: T1, GAPDH:AMPAR complex (Homo sapiens, UniProt P04406); test: Co-immunoprecipitation of GAPDH with GluR2 in HEK-293T cells expressing GluR1/GluR2; assay type: cell-based
T1 construct: It should be noted that HEK293T cells expresses endogenous GAPDH; expressed in transfected cells; host or cells: HEK-293T (GluR1 and GluR2 transfected; GAPDH endogenous)
T1 sequence (P04406 2-335 limits assumed, one chain of several): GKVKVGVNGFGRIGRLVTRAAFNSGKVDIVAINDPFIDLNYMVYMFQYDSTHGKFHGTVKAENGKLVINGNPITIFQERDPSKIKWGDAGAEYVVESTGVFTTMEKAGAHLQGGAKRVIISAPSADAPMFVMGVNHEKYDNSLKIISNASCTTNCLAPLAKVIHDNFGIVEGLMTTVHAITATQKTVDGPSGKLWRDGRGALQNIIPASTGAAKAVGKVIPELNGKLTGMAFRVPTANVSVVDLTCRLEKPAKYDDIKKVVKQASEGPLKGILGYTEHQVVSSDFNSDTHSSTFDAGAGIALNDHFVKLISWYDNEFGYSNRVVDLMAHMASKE
Method: (§1) Protein affinity purification, in vitro binding, co-immunoprecipitation and Western blot analyses were performed as previously described (73, 79). Antibodies used for immunoprecipitation, Western blots and cell surface ELISA assays included GAPDH (polyclonal from Abcam, monoclonal from Chemicon), GluR2 (Western blots: Chemicon; immunoprecipitation: Upstate), HA (monoclonal, Covance), α-tubulin (monoclonal, Sigma-Aldrich), LaminB1 (Zymed Laboratories).

[2] = system: nontransfected HEK-293T cells; test: Cell death in HEK-293T cells in the absence of GluR1/GluR2 co-expression; assay type: cell-based
Method: (§2) Cells were allowed to recover for 24 hours at 37° C. To quantify AMPA-mediated cell death, culture medium was replaced by extracellular solution containing 50 μg/ml of propidium iodide (PI) (Invitrogen). After 30 minutes incubation at 37° C., fluorescence intensity in each well was measured with a plate reader (Victor3; PerkinElmer). […] Primary hippocampal neurons were exposed to 100 μM KA/25 μM cyclothiazide in medium at 37° C. for 1 hour, at 37° C.

[3] = system: HEK-293T cells expressing GluR1/3; test: GluR1/3 AMPAR-mediated cell death in HEK-293T cells; assay type: cell-based; conditions: pre-incubation; HEK-293T expressing GluR1/3
Method: as §2

GAPDH:AMPAR complex [4] = biological target: T2, GAPDH:AMPAR complex (Rattus norvegicus, UniProt P04797); test: Co-immunoprecipitation of GAPDH with GluR2 in primary cultures of rat hippocampal neurons; assay type: cell-based; conditions: preincubation 10 μM, 1 hour; 100 μM kainic acid, 30 min
T2 construct: endogenous in cells; host or cells: primary hippocampal neurons from fetal Wistar rats
T2 sequence (P04797 whole entry, one chain of several): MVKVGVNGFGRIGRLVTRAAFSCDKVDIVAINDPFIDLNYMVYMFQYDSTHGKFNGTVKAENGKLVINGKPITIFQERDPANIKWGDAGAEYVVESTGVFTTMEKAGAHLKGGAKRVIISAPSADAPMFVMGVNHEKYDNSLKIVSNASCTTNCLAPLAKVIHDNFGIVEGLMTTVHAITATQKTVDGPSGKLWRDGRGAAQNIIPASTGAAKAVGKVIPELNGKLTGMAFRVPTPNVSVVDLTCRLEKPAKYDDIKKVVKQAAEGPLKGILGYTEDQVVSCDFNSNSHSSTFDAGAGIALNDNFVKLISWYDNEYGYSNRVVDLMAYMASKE
Method: (§3) Primary cultures from hippocampus were prepared from fetal Wistar rats (embryonic day 17-19) on Cell^+ (Sarstedt) culture dishes as previously described (73). The cultures were used for experiments on 12-15 d after plating. Hippocampal cultures were pretreated with GluR2 NT1-3-2 peptides before kainic acid treatment.
as §1

[5] = system: HEK-293T cells expressing GluR1/2; test: Quantification of AMPAR-mediated cell death (propidium iodide fluorescence) in HEK-293T cells expressing GluR1/2; assay type: cell-based; conditions: for attenuation/inhibition of AMPAR-mediated (glutamate-induced) cell death: pretreatment 10 μM, 1 hr, 300 μM glutamate, 25 μM CTZ, 24 hr, n=9
Method: as §2

GAPDH-p53 interaction = test: Co-immunoprecipitation of GAPDH with p53; assay type: cell-based; conditions: extracted nuclear proteins; AMPAR activation
Method: as §1
(§4) Nuclei isolation was prepared as described previously (55, 66). Briefly, cells were gently rinsed twice with ice-cold PBS. And scraped in 1 ml of solution 1 (10 mM Tris-HCl, pH7.4, 100 mM NaCl2, 2.5 mM MgCl2, 0.5% NP-40, proteinase inhibitor and PMSF) per 10-cm plate. Then cells were homogenized by four passages through a 25-gauge needle and spin at 3000 g briefly. Pellets containing nuclei were subsequently utilized in biochemical assays.
(§5) Thus, we tested whether GluR2NT and GAPDH can interact with p53 using affinity “pull down” purification experiments. […] To identify the p53 interacting domain on GAPDH, GST-fusion proteins encoding truncated fragments of GAPDH were constructed and used in affinity purification assays (FIG. 24D). […] Furthermore, we confirmed the essential role of I221-E250 in maintaining GAPDH-p53 coupling.

[6] = system: HEK-293T cells cotransfected with GluR1/GluR2; test: Nuclear translocation of GAPDH and GluR2 in HEK-293T cells (nuclei, Western blot); assay type: cell-based; conditions: peptide 10 μM, 1 hr; glutamate 100 μM, 30 min
Method: as §1, §4

hippocampal neurons = test: Nuclear translocation of GAPDH and GluR2 in hippocampal neurons; assay type: cell-based, rat; conditions: peptide 10 μM, 1 hr; 100 μM KA, 10 μM MK-801, 2 μM nimodipine, 30 min
Method: as §3, §1, §4

[7] = system: transfected HEK-293T cells; test: Cell-ELISA of cell surface GluR2 and GAPDH in transfected HEK-293T cells; assay type: cell-based; conditions: GluR1/GluR2; glutamate
Method: Cell-ELISA assays (colorimetric assays) were done essentially as previously described (82). […] Cells were incubated in 1% (W/V) glycine for 10 minutes at 4° C. to recover from the fixing. Cells were then incubated with a monoclonal antibody against specific antibodies for the purpose of labeling the receptors or proteins on the cell surface under non-permeabilized conditions or the entire receptor pool under permeabilized conditions. After incubation with corresponding HRP-conjugated secondary antibodies (Sigma-Aldrich), the HRP substrate o-phenylenediamine (Sigma-Aldrich Co) was added to produce a color reaction that was stopped with the equal volume of 3N HCl. Fluorescence intensity in each well was measured with a plate reader (Victor3; PerkinElmer). […] Afterwards, cells were scrapped from the dishes, and the protein concentration of each dish was measured. The results of cell surface expression of receptors or proteins were calibrated by the protein concentration of each well. Analysis was done using at least 9 separate wells in each group.

[8] = system: cultured rat hippocampal neurons; test: AMPAR-mediated cell death (PI fluorescence) in cultured rat hippocampal neurons; assay type: cell-based; conditions: 100 μM KA, 10 μM MK-801, 2 μM nimodipine, 1 hr; n=9
Method: as §3
Cells were allowed to recover for 24 hours at 37° C. To quantify AMPA-mediated cell death, culture medium was replaced by extracellular solution containing 50 μg/ml of propidium iodide (PI) (Invitrogen). After 30 minutes incubation at 37° C., fluorescence intensity in each well was measured with a plate reader (Victor3; PerkinElmer). […]
To examine the GAPDH:AMPAR interactions in a relevant cellular milieu, primary cultures of rat hippocampal neurons were utilized in parallel experiments. We have previously shown in FIG. 21C that pre-incubating hippocampal neurons with the GluR2 NT1-3-2 peptide could disrupt the GAPDH-GluR2 interaction that was promoted by AMPAR activation. We subsequently examined if disruption of this interaction in hippocampal neurons could rescue cells from AMPAR-mediated cell death. AMPAR-mediated cell death was induced by pretreating neurons with kainic acid (KA; 100 μM, 1 hour) in the presence of NMDA receptor and Ca^2+ channel antagonists (10 μM MK-801 and 2 μM nimodipine, respectively).

hippocampal CA1 neurons = test: Four vessel occlusion ischemia model, cresyl violet-stained nuclei in CA1; assay type: in vivo, rat; conditions: 1 μM, 0.5 μl into hippocampus, 5-day recirculation
Method: In this study, a cannula (small diameter stainless steel tubes) was implanted in the animal one week before surgery. This cannula was used to deliver the peptide GluR2 NT1-3-2 (1 μM, 0.5 μl) into hippocampus where GAPDH-GluR2 interaction is considered to occur. On the surgery day, the four vessel occlusion ischemia model was performed in order to induce ischemia. Animals were treated with the peptide GluR2 NT1-3-2 either before (30 min) or after (2 hour) the induction of ischemia to examine the neuroprotective effect of the peptide. After a 5-day recirculation period, animals were decapitated, the brains were removed and dissected to harvest the hippocampus. Cresyl violet was used to stain alive neurons in hippocampus region of each animal. Cresyl violet-stained nuclei were observed by microscope and total number of stained nuclei in CA 1 region was summarized and normalized to the sham-operated group.

p53 = biological target: T3, p53 (Rattus norvegicus, UniProt P10361); test: Affinity pull down of p53 from rat hippocampal extracts by GST-GAPDH fragments; assay type: binding
T3 construct: from tissue; host or cells: solubilized nuclear proteins / extracts of rat hippocampus
T3 sequence (P10361 whole entry, the tested form may be a part): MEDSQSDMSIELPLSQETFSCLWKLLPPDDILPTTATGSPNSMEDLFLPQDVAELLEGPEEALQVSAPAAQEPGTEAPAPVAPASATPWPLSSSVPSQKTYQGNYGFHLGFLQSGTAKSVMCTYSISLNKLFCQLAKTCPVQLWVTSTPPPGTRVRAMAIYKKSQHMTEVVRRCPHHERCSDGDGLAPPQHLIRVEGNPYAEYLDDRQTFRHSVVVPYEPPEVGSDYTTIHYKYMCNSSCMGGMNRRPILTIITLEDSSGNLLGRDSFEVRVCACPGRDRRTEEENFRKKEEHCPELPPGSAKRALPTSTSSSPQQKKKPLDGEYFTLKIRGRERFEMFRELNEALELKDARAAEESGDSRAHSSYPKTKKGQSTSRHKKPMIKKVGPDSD
Method: as §1, §5

[9] = system: HEK-293T cells expressing NR1-1a/2A NMDA receptor; test: NR1-1a/2A NMDA receptor-mediated cell death in HEK-293T cells; assay type: cell-based; conditions: depletion of calcium with 5 mM EGTA; n=9
GAPDH = biological target: T4, GAPDH (Rattus norvegicus, UniProt P04797); test: Affinity purification of GAPDH from rat hippocampal extracts by GST-fusion proteins; assay type: binding; conditions: solubilized rat hippocampal extracts
T4 construct: from tissue; host or cells: detergent extracts of rat hippocampus
T4 sequence (P04797 whole entry, the tested form may be a part): as the sequence (P04797 whole entry, one chain of several) above
Method: as §1
We then further divided the GluR2 NTa3 region into 30 amino acids GST-fusion proteins and mini-genes (GluR2 NTa3-1: H122-E141, 20 a.a; GluR2 NT1-3-2 Y142-K172, 30 a.a) to delineate the region of GluR2 NTa3 involved in the interactions (FIG. 6A). GluR2 NT1-3-2, but not GluR2 NTa3-1 or GST alone, precipitated GAPDH in rat hippocampal extracts in affinity purification assays (FIG. 6B). This was also supported by a blot overlay experiment where [35S]-GAPDH probe bound with GluR2 NT1-3-2, but not GluR2 NTa3-1 or GST alone (FIG. 6C).

[35S]-GAPDH = biological target: T5, [35S]-GAPDH (Homo sapiens, UniProt P04406); test: In vitro binding (blot overlay) with [35S]-GAPDH probe; conditions: in vitro binding assay
T5 construct: made in house
T5 sequence (P04406 whole entry): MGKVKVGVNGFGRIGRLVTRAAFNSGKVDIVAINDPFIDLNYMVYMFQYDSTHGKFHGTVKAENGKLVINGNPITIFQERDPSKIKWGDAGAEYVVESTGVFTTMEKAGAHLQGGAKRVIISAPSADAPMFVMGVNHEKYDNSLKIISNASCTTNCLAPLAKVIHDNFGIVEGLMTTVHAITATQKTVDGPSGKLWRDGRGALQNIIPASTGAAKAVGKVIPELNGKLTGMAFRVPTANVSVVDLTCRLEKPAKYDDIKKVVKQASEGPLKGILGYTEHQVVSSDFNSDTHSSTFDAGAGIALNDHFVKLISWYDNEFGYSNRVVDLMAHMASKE
Method: as §1
In order to delineate the region of the GluR2NT involved in the interaction with the GAPDH, three GluR2NT GST-fusion proteins [GluR2 NTa V22-S271, (250 a.a), GluR2 NTb K272-421, (150 a.a), GluR2 NTc L422-E545, (124 a.a)] were constructed (FIG. 4A). In affinity purification assays, GluR2 NTa, but not GluR2 NTb, GluR2 NTc or GST alone precipitated GAPDH in rat hippocampal brain extract (FIG. 4B). […] To clarify the nature of the interaction, blot overlay experiments were performed, which provided in vitro evidence for a direct interaction. GluR2 NTa, GluR2 NTb and GluR2 NTc were probed with in vitro translated [35S]-methionine labelled peptides encoding GAPDH ([35S]-GAPDH). The [35S]-GAPDH probe bound with GluR2 NTa, but not GluR2 NTb or GluR2 NTc. […]

## GluR2 NT1-3-2 peptide: polypeptide of the GluR2 NT1-3-2 (Y142-K172) amino acid sequence (SEQ ID NO:1) (YYQWDKFAYLYDSDRGLSTLQAVLDSAAEKK; Y142-K172 of GluR2 subunit receptor from homo sapiens)
GAPDH:AMPAR complex [1]; preincubation 10 μM, 1 hour, 100 μM glutamate, 30 min
  agonist-induced increase in GAPDH:AMPAR complex formation: significantly inhibited
[2]
  effect of the peptide itself in the absence of GluR1/GluR2 co-expression: no effect
[3]
  inhibition of GluR1/3 AMPAR-mediated (glutamate-induced) cell death: failed to inhibit
GAPDH:AMPAR complex [4]
  agonist-induced increase in GAPDH:AMPAR complex formation: significantly inhibited
[5]; GluR1/2 transfected cells, no glutamate
  effect of the peptide itself on cell death in the absence of glutamate treatment: no effect
[5]
  attenuation/inhibition of AMPAR-mediated (glutamate-induced) cell death: 56±1.6%
GAPDH-p53 interaction
  GAPDH-p53 interaction after peptide pretreatment: inhibited
[6]
  nuclear translocation of GAPDH and GluR2: blocked
Hippocampal neurons
  nuclear translocation of GAPDH and GluR2: blocked
[7]
  agonist-induced GAPDH internalization after preincubation of peptide: abolished
[8]
  inhibition of AMPAR-mediated cell death: 47.6±3.3%
Hippocampal CA1 neurons; 30 min before ischemia
  neurons rescued from cell death, peptide treatment before ischemia: 18.2%
Hippocampal CA1 neurons; 2 hour after ischemia
  neurons rescued from cell death, peptide treatment after ischemia: 13.2%

## GST-GAPDH(2-2-1-1): GST-fusion protein encoding truncated GAPDH fragment I221-E250
p53
  pull down of p53: specifically pulled down

## O=C(O)CN(CCOCCOCCN(CC(=O)O)CC(=O)O)CC(=O)O [EGTA, reference compound]
[5]; 5 mM EGTA
  GluR1/GluR2 AMPAR-mediated cell death on depletion of calcium: remained intact
[9]
  inhibition of NR1-1a/2A NMDA receptor-mediated cell death: 38±3.6%

## N[C@@H](CCC(=O)O)C(=O)O [Glutamate]
GAPDH:AMPAR complex [1]
  CO-IP of GAPDH by the GluR2 subunit antibody on agonist activation: increase

## Cc1ccc(-c2cn3c4c(sc3n2)CCCC4)cc1 [cyclic PFT-α, reference compound]
[3]
  inhibition of GluR1/3 AMPAR-mediated (glutamate-induced) cell death: failed to inhibit
[5]
  attenuation/inhibition of AMPAR-mediated (glutamate-induced) cell death: 49.8±8.3%

## N#Cc1cc2c(cc1[N+](=O)[O-])=NC(=O)C(=O)N=2 [CNQX, 6-cyano-7-nitroquinoxaline-2,3-dione]
GAPDH:AMPAR complex [1]; glutamate-activated AMPA receptor
  association between GAPDH and GluR2 with antagonist: decreased

## GST-GluR2 NT1-3-2: GST-fusion protein of GluR2 NT1-3-2 Y142-K172 (YYQWDKFAYLYDSDRGLSTLQAVLDSAAEKK; not fully specified (N-terminus); also: GST fusion partner)
GAPDH
  affinity precipitation of GAPDH (Western blot): presence of GAPDH
[35S]-GAPDH
  binding of [35S]-GAPDH probe: bound
